Test results from US10669266B2, “Oxadiazole inhibitors of HIPK2 for treating kidney fibrosis” (ICAHN SCHOOL OF MEDICINE AT MOUNT SINAI, priority 2017, dated 2020).
Where two headings read alike, the source gives them in different places.

Experiments:
[1] = test system: lactate dehydrogenase (LDH) level in cell culture medium; experiment: LDH cytotoxicity assay of cell culture medium; format: cell-based; conditions: up to 30 μM, 16 hours of incubation
Description: Medium LDH measurement was performed using LDH Cytotoxicity Assay Kit (ThermoFisher scientific, NY) according to manufacturer's instructions.
In order to rule out the possibility that the reduction in Smad3 activity is due to the cytotoxicity of increasing concentration of compound, lactate dehydrogenase (LDH) level in cell culture medium was examined. LDH is released by damaged cells.

HIPK2-Smad3 interaction = target: T1, HIPK2-Smad3 interaction (Homo sapiens, UniProt Q9H2X6); experiment: His6-HIPK2 cobalt resin pull-down of endogenous Smad3 in 293T cells; format: cell-based; conditions: 293T cells overexpressing His6-HIPK2, two different doses
T1 construct: host or cells: HEK 293T
T1 sequence (Q9H2X6 whole entry): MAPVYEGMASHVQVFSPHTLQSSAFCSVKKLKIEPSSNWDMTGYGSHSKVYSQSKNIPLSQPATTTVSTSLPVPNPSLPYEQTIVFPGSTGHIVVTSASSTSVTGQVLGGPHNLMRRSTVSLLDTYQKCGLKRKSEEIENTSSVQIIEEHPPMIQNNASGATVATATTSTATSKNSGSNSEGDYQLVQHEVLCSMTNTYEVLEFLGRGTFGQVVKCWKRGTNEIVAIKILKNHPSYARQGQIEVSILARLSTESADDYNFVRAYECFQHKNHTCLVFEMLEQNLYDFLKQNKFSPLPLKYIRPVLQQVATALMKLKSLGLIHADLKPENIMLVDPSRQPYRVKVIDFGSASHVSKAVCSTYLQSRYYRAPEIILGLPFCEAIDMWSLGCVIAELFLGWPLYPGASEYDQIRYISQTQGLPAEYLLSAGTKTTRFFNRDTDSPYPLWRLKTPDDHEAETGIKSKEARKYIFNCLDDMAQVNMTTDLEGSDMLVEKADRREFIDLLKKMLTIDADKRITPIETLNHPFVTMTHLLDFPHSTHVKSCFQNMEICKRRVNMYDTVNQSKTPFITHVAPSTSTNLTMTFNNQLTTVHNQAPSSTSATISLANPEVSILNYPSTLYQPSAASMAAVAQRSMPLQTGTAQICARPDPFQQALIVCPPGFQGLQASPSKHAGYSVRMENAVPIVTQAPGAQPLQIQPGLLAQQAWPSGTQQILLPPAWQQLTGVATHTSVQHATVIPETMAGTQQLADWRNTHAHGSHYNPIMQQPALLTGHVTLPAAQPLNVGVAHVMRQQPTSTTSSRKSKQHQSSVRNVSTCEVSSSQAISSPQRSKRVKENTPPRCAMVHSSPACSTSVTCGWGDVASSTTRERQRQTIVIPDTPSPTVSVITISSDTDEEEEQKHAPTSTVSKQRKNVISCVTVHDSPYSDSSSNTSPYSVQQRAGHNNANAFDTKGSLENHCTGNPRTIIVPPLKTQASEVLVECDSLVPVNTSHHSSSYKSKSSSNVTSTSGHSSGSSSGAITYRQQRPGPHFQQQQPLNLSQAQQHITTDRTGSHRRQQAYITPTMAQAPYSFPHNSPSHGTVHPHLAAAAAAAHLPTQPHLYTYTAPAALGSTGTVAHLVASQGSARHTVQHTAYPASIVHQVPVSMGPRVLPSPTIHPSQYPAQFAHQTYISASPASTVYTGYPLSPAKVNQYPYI
Description: 4×Smad binding element-driven firefly luciferase (SBE4-Luc) plasmid was purchased from Addgene (#16495). Renilla luciferase reporter plasmid (pRL) was purchased from Promega. Active domain deleted HIPK2 was previously described by Jin et al. [Nat Med, 18: 580-588]. The His6-HIPK2 construct was generated by PCR amplification of coding region using plasmid containing human HIPK2 gene (GeneCopoeia™) as the template.
293T cells were lysed in equilibration/wash buffer (50 mM sodium phosphate, 300 mM sodium chloride, 10 mM imidazole; pH 7.4) 48 hours after transfection of His6-tagged HIPK2 expression plasmid. Cleared cell lysate was incubated with HisPur Cobalt resin (Thermo Fisher Scientific, NY) on end-over-end rotator at 4° C. for 2 hours. After centrifugation (700×g, 2 min, 4° C.), the resin was washed 3 times in a wash buffer. The bound protein complexes were finally eluted with elution buffer (50 mM sodium phosphate, 500 mM sodium chloride, 150 mM imidazole; pH 7.4) and subjected to western blot analysis.
Cells were lysed in M-PER mammalian protein extraction reagent (#78501, Thermo Fisher Scientific, NY) containing protease inhibitor cocktail (#11836153001, Roche) and phosphatase inhibitors (50 mM NaF, 10 mM β-glycerophosphate, 5 mM sodium pyrophosphate, 2 mM Na3VO4). Total protein concentration was measured using the Bradford reagent (#500-0006, Bio-Rad). […]

[2] = test system: TGF-β1/Smad3 downstream target genes (Col I, CTGF, FN1, MMP2, PAI1, α-SMA); experiment: Real-time PCR of TGF-β1/Smad3 downstream target genes in hRTECs; format: cell-based, human
Description: HEK 293T (293T) cells (ATCC) were cultured in Dulbecco's Modified Eagle's medium (Invitrogen) containing 10% fetal bovine serum (FBS), 0.5% penicillin and streptomycin at 37° C. and 5% CO2 humidified environment. Human primary tubular cells (PromoCell GmbH, Heidelberg, Germany) were cultured in Renal Epithelial Cell Growth Medium-2 (Promocell GmbH) with supplements according to manufacturer's protocol human primary renal tubular epithelial cells with <5 passages were used for all studies. For HIV infection of hRTECs, pNL4-3:ΔG/P-EGFP, a gag/poi-deleted HIV-1 construct that contains EGFP in the gag open reading frame, and pHR-IRES-EGFP, a control EGFP construct, were used to generate the VSV-G pseudotyped virus. Cells were infected with HIV pseudotyped virus or control virus for 2 days before the treatment with test compound.
Total RNA was extracted using Trizol (Invitrogen). 400 ng of total RNA was reverse transcribed to cDNA using SuperScript III first strand synthesis system (Invitrogen).
Quantitative RT-PCR was performed using 7500 Real-Time PCR System (Applied Biosystems). Gene level was normalized to glyceraldehyde 3-phosphate dehydrogenase (GAPDH) and expressed as fold change. The primer sets used were as follows:
The effects of compounds of the invention on Smad3 phosphorylation and the expression of the downstream target genes of TGF-β/Smad3 pathway was also examined. […]

[3] = test system: Smad3-responsive luciferase reporter (SBE4-Luc); conditions: for suppression of Smad3 reporter activity, inhibition compared to DMSO control: absence of TGF-β1 stimulation
Description: Forty-eight hours post-transfection cells were treated with assigned concentrations of test compound together with or without 10 ng/ml TGF-β1 for 16 hours. Luciferase activities were measured using the Dual-Luciferase Reporter Assay kit (Promega, #E1910). Data are expressed as the ratio of firefly luciferase activity over Renilla luciferase activity. […] 48 hours after transfection, luciferase activities were measured.

HIPK2 [4] = target: T2, HIPK2 (Homo sapiens, UniProt Q9H2X6); experiment: Drug affinity responsive target stability (DARTS) with pronase in 293T lysates; format: binding; design: endogenous in cells; host or cells: HEK 293T cell lysate; conditions: 1:10,000 pronase/cell lysate ratio
T2 sequence (Q9H2X6 whole entry): as above
Description: Drug affinity responsive target stability (DARTS) method was used to identify protein targets of test compound as described previously by Pai et al. [Methods Mol Biol, 1263: 287-298, 2015]. Briefly, 293T lysates were incubated with test compound at room temperature for 1 hour. After incubation, cell lysates were subjected to proteolysis with various concentrations of pronase (#10165921001, Roche) at room temperature for 20 minutes. Proteolysis was stopped by addition of 5× protein loading buffer and heating at 90° C. for 5 minutes. Protein samples were subjected to western blot analysis.
Drug affinity responsive target stability (DARTS) has recently been developed to identify potential protein targets of small molecules. It is based on the principle that the binding of small molecule compound to the target protein changes the protein structure such that it can increase its stability and confer protection against proteolysis. In order to test whether compounds of the invention bind directly to HIPK2, we performed the DARTS experiments using pronase in presence of Example 1. […] Because HIPK2 abundance is quite low in many known cell types, we overexpressed His6-tagged HIPK2 in 293T cells for testing its interaction with the endogenous Smad3. The expression of His6-HIPK2 and Smad3 in 293T cells was confirmed by western blot. We pulled down His6-HIPK2 using cobalt beads and checked for the presence of Smad3 in cells treated with two different doses of Example 1.

HIPK2 [5] = target: T2, HIPK2; experiment: HIPK2 kinase assay (ProQinase GmbH); format: biochemical; design: purchased ProQinase GmbH (Freiburg, Germany), assay service; conditions: increasing concentrations
Description: HIPK2 kinase assay was performed by ProQinase GmbH (Freiburg, Germany).
Kinase assay was performed by ProQinase GmbH (Freiburg, Germany).

In the case of COc1ccc2cc(-c3nc(-c4ccc(Br)cc4)no3)cnc2c1 [Example 1, 3-(4-Bromophenyl)-5-(7-methoxyquinolin-3-yl)-1,2,4-oxadiazole], the “LDH level in the culture medium” value [1] is reported as “no significant increase”, the “interaction between Smad3 and HIPK2 (His6-HIPK2 pull-down)” value (HIPK2-Smad3 interaction) is reported as “reduced the interaction between Smad3 and HIPK2 in a dose-dependent manner” and the “expression of Col I, CTGF, FN1, MMP2, PAI1 and α-SMA (real-time PCR)” value ([2]; absence of TGF-β1 stimulation) is reported as “did not affect expression”. The “expression of Col I, CTGF, FN1, MMP2, PAI1 and α-SMA (real-time PCR)” value ([2]; treated with TGF-β1, increasing concentrations) was “progressively inhibited”, the “Luciferase Activity (Relative to DMSO control) −TGFβ” value [3] was 0.197 and the “suppression of Smad3 reporter activity, inhibition compared to DMSO control” value ([3]; 3.3 μm) was ~40%. For the same molecule, the “suppression of Smad3 reporter activity, inhibition compared to DMSO control” value ([3]; 10 μm) was ~70%, the “SBE4-luciferase activity, inhibition compared to TGFβ1-treated only control” value ([3]; presence of TGF-β1, first of three tested doses) was ~40% and the “SBE4-luciferase activity, inhibition compared to TGFβ1-treated only control” value ([3]; presence of TGF-β1, second of three tested doses) was ~60%. For the same molecule, the “SBE4-luciferase activity, inhibition compared to TGFβ1-treated only control” value ([3]; presence of TGF-β1, third of three tested doses) was ~75%, the “protection of HIPK2 from pronase digestion (DARTS)” value (HIPK2 [4]; 30 μm) was “partial protection” and the “protection of HIPK2 from pronase digestion (DARTS)” value (HIPK2 [4]; 100 μm) was “complete protection”. The “protection of HIPK2 from pronase degradation (DARTS)” value (HIPK2 [4]; versus DMSO control) was “protected from degradation” and the “inhibition of HIPK2 kinase activity” value (HIPK2 [5]) was “No inhibition”.
